Source: ChEMBL document CHEMBL1145690, “Antimalarial activity of tropical Meliaceae extracts and gedunin derivatives” (J Nat Prod, 1997)
≈ marks a conversion by molar mass, not a printed value. Calls of active or inactive are those of the source. The calls are words filed in the database; no cut-off is given here.

Experiments:
KB [1] = assay: Cytotoxicity against human KB cells; type: functional, cell-based
Plasmodium falciparum [2] = assay: Antimalarial activity against Plasmodium falciparum D6 by [3H]hypoxanthine uptake relative to gedunin; type: functional
Plasmodium falciparum [3] = assay: Antimalarial activity against Plasmodium falciparum D6 by [3H]hypoxanthine uptake; type: functional, organism-based
Plasmodium falciparum [4] = assay: Antimalarial activity against Plasmodium falciparum W2 by [3H]hypoxanthine uptake; type: functional, organism-based
KB [5] = assay: Cytotoxicity against human KB cells assessed as viability at 20000 ng/ml; type: functional; settings: read-out: Activity
Plasmodium falciparum [6] = assay: Antimalarial activity against Plasmodium falciparum FCR3TC by radioisotope micro dilution assay; type: functional, organism-based
Plasmodium falciparum [7] = assay: Antimalarial activity against Plasmodium falciparum at 50000 ng/ml; type: functional, organism-based
Plasmodium falciparum [8] = assay: Antimalarial activity against Plasmodium falciparum; type: functional, organism-based

Row | IC50 (Plasmodium falciparum [3]) | IC50 (Plasmodium falciparum [8]) | SMILES | IC50 (KB [1]) | Activity (Plasmodium falciparum [2]) | IC50 (Plasmodium falciparum [4]) | viability at 20 µg/mL (KB [5]) | IC50 (Plasmodium falciparum [6]) | Activity (Plasmodium falciparum [7])
1 | 0.832 mg/L (≈ 1.59 µM) | – | CC(=O)O[C@@H]1C[C@H]2C(C)(C)C(=O)C=C[C@]2(C)[C@H]2CC[C@@]3(C)[C@H](c4coc(C(C)=O)c4)OC(=O)[C@H]4O[C@]43[C@@]21C | 10.9 mg/L (≈ 20.8 µM) | 4.69% | 0.156 mg/L (≈ 0.297 µM) | 38% | – | –
2 | 4.21 mg/L (≈ 8.65 µM) | – | CC(=O)O[C@@H]1C[C@H]2C(C)(C)[C@@H](O)CC[C@]2(C)[C@H]2CC[C@@]3(C)[C@H](c4ccoc4)OC(=O)[C@H]4O[C@]43[C@@]21C [beta-DIHYDROGEDUNOL] | – | 0.93% | 2.44 mg/L (≈ 5.01 µM) | 69% | – | –
3 | 2.58 mg/L (≈ 5.17 µM) | – | CC(=O)O[C@@H]1C[C@H]2C(C)(C)C(=O)[C@@H]3O[C@@H]3[C@]2(C)[C@H]2CC[C@@]3(C)[C@H](c4ccoc4)OC(=O)[C@H]4O[C@]43[C@@]21C | – | 0.93% | 0.98 mg/L (≈ 1.97 µM) | 81% | – | –
4 | – | – | CC1(C)O[C@H]2CC(=O)OC[C@]23[C@H]2CC[C@@]4(C)[C@H](c5ccoc5)OC(=O)[C@H]5O[C@]54[C@]2(C)C(=O)C[C@@H]13 [LIMONIN] | – | – | – | – | > 100 mg/L | inactive
5 | 0.133 mg/L (≈ 0.254 µM) | – | CC(=O)O[C@@H]1C[C@H]2C(C)(C)C(=O)C=C[C@]2(C)[C@H]2CC[C@@]3(C)[C@H](c4ccoc4C(C)=O)OC(=O)[C@H]4O[C@]43[C@@]21C | 9.4 mg/L (≈ 17.9 µM) | 29.38% | 0.039 mg/L (≈ 0.0743 µM) | 31% | – | –
6 | – | 1.74 mg/L (≈ 3.73 µM) | COC(=O)C[C@H]1[C@]2(C)C3=C(C)[C@H](c4ccoc4)C[C@H]3O[C@@H]2[C@@H]2OC(=O)[C@]3(C)C=CC(=O)[C@@]1(C)[C@@H]23 [NIMBOLIDE] | – | – | – | – | – | –
7 | > 10 mg/L | 2.63 mg/L (≈ 5.43 µM) | CC(=O)O[C@@H]1C[C@H]2C(C)(C)C(=O)CC[C@]2(C)[C@H]2CC[C@@]3(C)[C@H](c4ccoc4)OC(=O)[C@H]4O[C@]43[C@@]21C [DIHYDROGEDUNIN] | – | <0.39% | 0.84 mg/L (≈ 1.73 µM) | 71% | – | –
8 | 2.5 mg/L (≈ 5.14 µM) | – | CC(=O)O[C@@H]1C[C@H]2C(C)(C)C(=O)C=C[C@]2(C)[C@H]2CC[C@@]3(C)[C@H](C4CCOC4)OC(=O)[C@H]4O[C@]43[C@@]21C (stereo partly specified) [TETRAHYDROGEDUNIN] | – | 1.56% | 0.9 mg/L (≈ 1.85 µM) | 81% | – | –
9 | 10 mg/L (≈ 20.5 µM) | – | CC(=O)O[C@@H]1C[C@H]2C(C)(C)C(=O)CC[C@]2(C)[C@H]2CC[C@@]3(C)[C@H](C4CCOC4)OC(=O)[C@H]4O[C@]43[C@@]21C (stereo partly specified) [HEXAHYDROGEDUNIN] | – | 0.39% | 2.13 mg/L (≈ 4.36 µM) | 99% | – | –
10 | – | – | CCN(CC)CCCC(C)Nc1ccnc2cc(Cl)ccc12 (stereo unspecified) [CHLOROQUINE] | 17.4 mg/L (≈ 54.4 µM) | 3000% | – | – | – | –
11 | – | – | C=C[C@H]1CN2CC[C@H]1C[C@H]2[C@H](O)c1ccnc2ccc(OC)cc12 [QUININE] | > 20 mg/L | 264% | 0.0349 mg/L (≈ 0.108 µM) | – | – | –

Row | SMILES | IC50 (Plasmodium falciparum [3]) | IC50 (Plasmodium falciparum [8]) | IC50 (KB [1]) | Activity (Plasmodium falciparum [2]) | IC50 (Plasmodium falciparum [4]) | viability at 20 µg/mL (KB [5]) | IC50 (Plasmodium falciparum [6]) | Activity (Plasmodium falciparum [7])
12 | CC1(C)C(=O)C=C[C@]2(C)[C@H]3CC[C@@]4(C)[C@H](c5ccoc5)OC(=O)[C@H]5O[C@]54[C@]3(C)[C@H](O)C[C@@H]12 [DEACETYLGEDUNIN] | 2.61 mg/L (≈ 5.92 µM) | – | – | 1.5% | 1.28 mg/L (≈ 2.91 µM) | 39% | – | –
13 | C[C@@H]1CC[C@H]2[C@@H](C)C(=O)O[C@@H]3O[C@@]4(C)CC[C@@H]1[C@]32OO4 [ARTEMISININ] | 0.0018 mg/L (≈ 0.00638 µM) | – | > 20 mg/L | 2170% | 0.0005 mg/L (≈ 0.00177 µM) | – | – | –
14 | OC(c1cc(C(F)(F)F)nc2c(C(F)(F)F)cccc12)C1CCCCN1 (stereo unspecified) [MEFLOQUINE] | 0.0075 mg/L (≈ 0.0198 µM) | – | 3.5 mg/L (≈ 9.25 µM) | 521% | 0.0014 mg/L (≈ 0.0037 µM) | – | – | –
15 | CC1(C)C(=O)C=C[C@]2(C)[C@H]3CC[C@@]4(C)[C@H](c5ccoc5)OC(=O)[C@H]5O[C@]54[C@]3(C)C(=O)C[C@@H]12 [DEACETOXY-7-OXOGEDUNIN] | > 10 mg/L | – | – | <0.39% | > 10 mg/L | 99% | – | –
16 | CCOC(=O)[C@H]1[C@@H](OC(C)=O)[C@@H]2[C@@]3(C)C=CC(=O)[C@@](C)(C(=O)OC)C3=CC(=O)[C@@]2(C)[C@@]23O[C@@H]2C[C@@H](c2ccoc2)[C@]13C [HIRITIN] | 0.173 mg/L (≈ 0.298 µM) | – | 0.5 mg/L (≈ 0.861 µM) | 22.6% | 0.096 mg/L (≈ 0.165 µM) | 4.9% | – | –
17 | CC(=O)O[C@@H]1C[C@H]2C(C)(C)C(=O)C=C[C@]2(C)[C@H]2CC[C@@]3(C)[C@H](c4ccoc4)OC(=O)[C@H]4O[C@]43[C@@]21C [GEDUNIN] | 0.039 mg/L (≈ 0.0808 µM) | 0.72 mg/L (≈ 1.49 µM) | 2.3 mg/L (≈ 4.77 µM) | – | 0.02 mg/L (≈ 0.0414 µM) | 32% | 0.8 mg/L (≈ 1.66 µM) | –
